Experimental data published in publication PMC12373499 (Nature Metabolism, 2025).
Where a SMILES comes first, the peptide text is derived from it. [ ]: non-standard residue; d: D form. The star is where a group is joined. X1 = CN1C(=CC=CC=CC2=[N+](CCCCCC(=O)NCCN3C(=O)CC(*)C3=O)c3ccccc3C2(C)C)C(C)(C)c2ccccc21; Aib = CC(C)(N)C(=O)O

Key:
C57BL/N mice = test: Food intake study (FED3 devices); assay type: in vivo, mouse; conditions: 10 nmol kg^−1 s.c., dark phase and cumulative 24 h, n = 8 mice
Procedure: Male and female 12–14 week old C57BL/N mice were singly housed in a 12 h dark–light cycle (14:00–02:00 h) and habituated to FED3 feeding devices for 7 days before commencing the study. All mice were kept on a 12 h light–dark cycle at 20–24 °C and 45–65% relative humidity (typically 21 °C and 55%). On test days, mice were fasted for 3 h before onset of the dark phase by removal of the FED3 devices. […] The study was performed using a three-way crossover design. A 1-week washout period was observed between experimental days. FED3 devices were checked, serviced and food was topped up daily.

Nluc–GIPR (hGIPR) = biological target: T1, Nluc–GIPR (hGIPR) (Homo sapiens, UniProt P48546); test: NanoBRET saturation binding assay, HEK293T cells
T1 construct: expressed in transfected cells; host or cells: HEK293T cells, transient expression
T1 sequence (P48546 22-466): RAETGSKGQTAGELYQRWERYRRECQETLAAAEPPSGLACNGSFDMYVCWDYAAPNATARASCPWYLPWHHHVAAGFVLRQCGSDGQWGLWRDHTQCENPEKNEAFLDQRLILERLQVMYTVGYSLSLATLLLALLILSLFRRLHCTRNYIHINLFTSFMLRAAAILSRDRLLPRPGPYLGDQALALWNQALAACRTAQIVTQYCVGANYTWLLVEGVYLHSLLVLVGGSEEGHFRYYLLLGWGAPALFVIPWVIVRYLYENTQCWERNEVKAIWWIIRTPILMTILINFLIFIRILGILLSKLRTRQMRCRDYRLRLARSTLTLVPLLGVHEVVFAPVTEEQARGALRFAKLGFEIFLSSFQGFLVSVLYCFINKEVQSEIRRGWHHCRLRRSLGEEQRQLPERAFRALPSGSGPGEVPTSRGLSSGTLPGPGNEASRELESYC
Procedure: (§1) HEK293T cells (RRID:CVCL_0063) were cultured in DMEM/F12 GlutaMAX (ThermoFisher), supplemented with 10% FBS and 1% antibiotic-antimycotic solution and cultured at 37 °C, 5% CO2. HEK293T cells were authenticated at source using STR profiling. […] Media was then removed and the cells were incubated in PBS supplemented with 0.1% BSA and 0.01% NanoGlo (Promega). […] Plates were read using a PheraSTAR microplate reader, using the NanoBRET filter module. BRET ratios (λacceptor/λdonor) were calculated, and saturation data fit using the ‘One Site – Specific Binding’ equation of GraphPad Prism 10. Competition binding was fit using the ‘One Site – Fit Ki’ equation.

Nluc–GLP1R (hGLP1R) = biological target: T2, Nluc–GLP1R (hGLP1R) (Homo sapiens, UniProt P43220); test: NanoBRET saturation binding assay, HEK293T cells
T2 construct: expressed in transfected cells; host or cells: HEK293T cells, transient expression
T2 sequence (P43220 24-463): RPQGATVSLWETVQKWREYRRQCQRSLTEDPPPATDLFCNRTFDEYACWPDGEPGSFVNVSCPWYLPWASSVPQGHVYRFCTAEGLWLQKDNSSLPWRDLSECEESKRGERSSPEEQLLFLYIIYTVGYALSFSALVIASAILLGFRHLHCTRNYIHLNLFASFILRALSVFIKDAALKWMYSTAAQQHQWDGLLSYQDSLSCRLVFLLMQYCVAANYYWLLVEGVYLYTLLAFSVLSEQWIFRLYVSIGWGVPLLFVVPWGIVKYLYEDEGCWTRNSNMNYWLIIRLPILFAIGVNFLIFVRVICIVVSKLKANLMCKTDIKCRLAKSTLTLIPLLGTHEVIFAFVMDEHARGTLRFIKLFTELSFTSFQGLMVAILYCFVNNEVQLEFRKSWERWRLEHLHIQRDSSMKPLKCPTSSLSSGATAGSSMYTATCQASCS
Procedure: as §1

SC-islets = test: Labelling of iPS cell-derived islet-like structures (SC-islets); assay type: cell-based, human; conditions: n = 12 SC-islets from two differentiations
Procedure: For immunostaining, labelled islets were washed three times with PBS, then incubated with 2–4% formalin for 15 min at room temperature (16–25 °C). Islets were again washed three times with PBS, then incubated in permeabilizing blocking buffer for 1 h at room temperature before incubation with primary antibody overnight at 4 °C. The following day, islets were incubated with secondary antibody for 2 h at room temperature before mounting onto microscope slides with […] HardSet with DAPI or Everbrite Hardset. Primary and secondary antibodies are listed in Supplementary Table 5.
Human iPS cells (ALSTEM, iPS11) were maintained on iPS cell-qualified Matrigel (Corning, 354277) in mTeSR+ media (StemCell Technologies, 05826). ALSTEM iPS11 cells were authenticated at source by testing for expression of OCT4 and TRA-1-60, as well as alkaline phosphatase activity. Differentiation to islet-like structures (SC-islets) was carried out in a suspension-based, magnetic CELLSPIN bioreactor system ([…]). Differentiation media was changed daily by letting spheres settle by gravity for 3–10 min. Most of the supernatant was removed by aspiration; fresh media was added and bioreactors were placed back on the stirrer system. SC-islet differentiation was based on published protocols[35],[49]
Probe labelling was analysed using corrected total cell fluorescence, which is integrated density − (area of selected cell × mean fluorescence of background readings)[52],[53]. Colocalization was determined using Manders’ coefficient, which calculates the proportion of pixels in one channel that also show intensity from both channels. Full width at half maximum was used to analyse labelling patterns at the membrane versus cytoplasm. All analyses were performed in ImageJ (NIH), with brightness and contrast linearly adjusted across the entire image for presentation purposes and applied equally between all states under examination.

[1] = One site -- Specific binding, fit of all pooled points

SMILES: CC[C@H](C)[C@H](NC(=O)[C@H](CC(C)C)NC(=O)[C@H](Cc1c[nH]c2ccccc12)NC(=O)[C@H](CCC(N)=O)NC(=O)[C@@H](NC(=O)[C@H](Cc1ccccc1)NC(=O)[C@H](C)NC(=O)[C@H](CCCCN)NC(=O)[C@H](CCC(N)=O)NC(=O)[C@H](C)NC(=O)[C@@H](NC(=O)[C@H](CCCCN)NC(=O)[C@H](CC(=O)O)NC(=O)[C@H](CC(C)C)NC(=O)C(C)(C)NC(=O)[C@@H](NC(=O)[C@H](CO)NC(=O)[C@H](Cc1ccc(O)cc1)NC(=O)[C@H](CC(=O)O)NC(=O)[C@H](CO)NC(=O)[C@@H](NC(=O)[C@H](Cc1ccccc1)NC(=O)[C@@H](NC(=O)CNC(=O)[C@H](CCC(=O)O)NC(=O)C(C)(C)NC(=O)[C@@H](N)Cc1ccc(O)cc1)[C@@H](C)O)[C@@H](C)O)[C@@H](C)CC)[C@@H](C)CC)C(C)C)C(=O)N[C@@H](C)C(=O)NCC(=O)NCC(=O)N1CCC[C@H]1C(=O)N[C@@H](CO)C(=O)N[C@@H](CO)C(=O)NCC(=O)N[C@@H](C)C(=O)N1CCC[C@H]1C(=O)N1CCC[C@H]1C(=O)N1CCC[C@H]1C(=O)N[C@@H](CSC1CC(=O)N(CCNC(=O)CCCCC[N+]2=C(C=CC=CC=C3N(C)c4ccccc4C3(C)C)C(C)(C)c3ccccc32)C1=O)C(N)=O (some centres unmarked) [daLUXendin660] (H-Y[Aib]EGTFTSDYSI[Aib]LDKIAQKAFVQWLIAGGPSSGAPPPC(X1)-NH2)
- effect on food intake (C57BL/N mice): reduced food intake
- Bmax best-fit (nM), hGIPR (Nluc–GIPR (hGIPR); Nluc-tagged hGIPR, NanoBRET saturation, n = 3 independent repeats): 0.0080 nM
- Bmax, best-fit value, GIPR (Nluc–GIPR (hGIPR); [1]): 0.01181
- Bmax best-fit (nM), hGLP1R (Nluc–GLP1R (hGLP1R); Nluc-tagged hGLP1R, NanoBRET saturation, n = 3 independent repeats): 0.0140 nM
- Bmax, best-fit value, GLP1R (Nluc–GLP1R (hGLP1R); [1]): 0.0163
- corrected total cell fluorescence, α cells (SC-islets; GCG+ cells): 2.30 × 10^5 ± 1.59 × 10^5 AU
- corrected total cell fluorescence, β cells (SC-islets; INS+ cells): 3.60 × 10^5 ± 2.58 × 10^5 AU
- corrected total cell fluorescence, δ cells (SC-islets; SST+ cells): 2.16 × 10^5 ± 1.46 × 10^5 AU
